# According to patent US8247211B2, “Glycopeptide antibiotics” (American Cyanamid Company, priority 2001, dated 2012):
# Legend:
# Test in all cases: In vitro antibacterial evaluation: minimum inhibitory concentration (MIC), broth dilution method
# Format in all cases: cell-based
# [1] = tested on: Streptococcus sp.; settings: broth dilution, 18 hours at 35° C.
# How it was run: (§1)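 NCCLS M7-A2 broth dilution with Mueller-Hinton II, testing 64-0.06 μg/mL antibiotic against 5×10^5 CFU/mL inocula. Test strains include recent methicillin-, penicillin- or vancomycin-resistant clinical isolates. MIC is the lowest concentration preventing growth.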
# [2] = tested on: Enterococcus sp.; settings: broth dilution, 18 hours at 35° C.
# How it was run: as §1
# [3] = tested on: Staphylococcus sp.; settings: broth dilution, 18 hours at 35° C.; for MIC Staphylococcus aureus-SMITH (GC 4543): strain SMITH GC 4543
# How it was run: as §1
# [4] = tested on: Escherichia coli; settings: broth dilution, 18 hours at 35° C.
# [5] = Streptococcus agalactiae (GC 4564)
# [6] = Streptococcus pneumoniae (ATCC 6301)
# [7] = Streptococcus pneumoniae (GC 1894)
# [8] = Streptococcus pneumoniae (GC 4565)
# [9] = Streptococcus pyogenes (GC 4563)
# [10] = Enterococcus faecalis (ATCC 29212)
# [11] = Enterococcus faecalis (GC 2242)
# [12] = Enterococcus faecalis (GC 2691)
# [13] = Enterococcus faecalis (GC 3059)
# [14] = Enterococcus faecalis (GC 4552)
# [15] = Enterococcus faecalis (GC 4553)
# [16] = Enterococcus faecalis (GC 4554)
# [17] = Enterococcus faecalis (GC 6189)
structure (smiles),measurement,setting,value
"COc1cc(-c2nc3cc(CC4NC(=O)C(C(C)c5ccccc5)NC(=O)CNC(=O)C(CO)NC(=O)C(C(O)C5CNC(=N)N5C5OC(CO)C(O)C(O)C5O)NC(=O)C(C(O)C5CNC(=N)N5)NC4=O)ccc3o2)cc(OC)c1OC (stereo not drawn) [Example 34, Cyclo[3-[2-(3,4,5-trimethoxyphenyl)-1,3-benzoxazol-5-yl]alanyl-3-(2-iminoimidazolidin-4-yl)seryl-3-(3-hexopyranosyl-2-iminoimidazolidin-4-yl)serylserylglycyl-β-methylphenyl-alanyl]]",MIC Streptococcus agalactiae (GC 4564),[1]; [5],32 µg/mL
same,MIC Streptococcus pneumoniae (ATCC 6301),[1]; [6],32 µg/mL
same,MIC Streptococcus pneumoniae (GC 1894),[1]; [7],16 µg/mL
same,MIC Streptococcus pneumoniae (GC 4565),[1]; [8],32 µg/mL
same,MIC Streptococcus pyogenes (GC 4563),[1]; [9],8 µg/mL
same,MIC Streptococcus agalactiae (GC 4564),[1],32 µg/mL
same,MIC Streptococcus pneumoniae (ATCC 6301),[1],32 µg/mL
same,MIC Streptococcus pneumoniae (GC 1894),[1],16 µg/mL
same,MIC Streptococcus pneumoniae (GC 4565),[1],32 µg/mL
same,MIC Streptococcus pyogenes (GC 4563),[1],8 µg/mL
same,MIC Enterococcus avium (GC 4558),[2]; Enterococcus avium (GC 4558),16 µg/mL
same,MIC Enterococcus faecalis (ATCC 29212),[2]; [10],64 µg/mL
same,MIC Enterococcus faecalis (GC 2242),[2]; [11],32 µg/mL
same,MIC Enterococcus faecalis (GC 2691),[2]; [12],32 µg/mL
same,MIC Enterococcus faecalis (GC 3059),[2]; [13],32 µg/mL
same,MIC Enterococcus faecalis (GC 4552),[2]; [14],32 µg/mL
same,MIC Enterococcus faecalis (GC 4553),[2]; [15],32 µg/mL
same,MIC Enterococcus faecalis (GC 4554),[2]; [16],32 µg/mL
same,MIC Enterococcus faecalis (GC 6189),[2]; [17],64 µg/mL
same,MIC Enterococcus faecium (GC 2243),[2]; Enterococcus faecium (GC 2243),32 µg/mL
same,MIC Enterococcus faecium (GC 4556),[2]; Enterococcus faecium (GC 4556),64 µg/mL
same,MIC Enterococcus faecium (GC 4557),[2]; Enterococcus faecium (GC 4557),8 µg/mL
same,MIC Enterococcus avium (GC 4558),[2],16 µg/mL
same,MIC Enterococcus faecalis (ATCC 29212),[2],64 µg/mL
same,MIC Enterococcus faecalis (GC 2242),[2],32 µg/mL
same,MIC Enterococcus faecalis (GC 2691),[2],32 µg/mL
same,MIC Enterococcus faecalis (GC 3059),[2],32 µg/mL
same,MIC Enterococcus faecalis (GC 4552),[2],32 µg/mL
same,MIC Enterococcus faecalis (GC 4553),[2],32 µg/mL
same,MIC Enterococcus faecalis (GC 4554),[2],32 µg/mL
same,MIC Enterococcus faecalis (GC 6189),[2],64 µg/mL
same,MIC Enterococcus faecium (GC 2243),[2],32 µg/mL
same,MIC Enterococcus faecium (GC 4556),[2],64 µg/mL
same,MIC Enterococcus faecium (GC 4557),[2],8 µg/mL
same,MIC Coagulase Negative Staphylococcus (GC 4547),[3],16 µg/mL
same,MIC Coagulase Negative Staphylococcus (GC 4548),[3],16 µg/mL
same,MIC Coagulase Negative Staphylococcus (GC 4549),[3],4 µg/mL
same,MIC Coagulase Negative Staphylococcus (GC 4551),[3],32 µg/mL
same,MIC Coagulase Negative Staphylococcus (GC 6257),[3],8 µg/mL
same,MIC Staphylococcus aureus SMITH (GC 4543),[3],16 µg/mL
same,MIC Staphylococcus haemolyticus (GC 4546),[3],8 µg/mL
same,MIC Staphylococcus aureus-SMITH (GC 4543),[3],16 µg/mL
same,MIC Escherichia coli (ATCC 25922),[4],64 µg/mL
same,MIC Escherichia coli (GC 4559),[4],64 µg/mL
same,MIC Escherichia coli (GC 4560),[4],16 µg/mL
"CC(c1ccccc1)C1NC(=O)CNC(=O)C(CO)NC(=O)C(C(O)C2CNC(=N)N2C2OC(CO)C(O)C(O)C2O)NC(=O)C(C(O)C2CNC(=N)N2)NC(=O)C(Cc2ccc3oc(C=C(c4ccccc4)c4ccccc4)nc3c2)NC1=O (stereo not drawn) [Example 39, Cyclo[3-[2-(2,2-diphenylethenyl)-1,3-benzoxazol-5-yl]alanyl-3-(2-iminoimidazolidin-4-yl)seryl-3-(3-hexopyranosyl-2-iminoimidazolidin-4-yl)serylserylglycyl-β-methylphenylalanyl]]",MIC Streptococcus agalactiae (GC 4564),[1]; [5],16 µg/mL
same,MIC Streptococcus pneumoniae (ATCC 6301),[1]; [6],8 µg/mL
same,MIC Streptococcus pneumoniae (GC 1894),[1]; [7],8 µg/mL
same,MIC Streptococcus pneumoniae (GC 4565),[1]; [8],16 µg/mL
same,MIC Streptococcus pyogenes (GC 4563),[1]; [9],4 µg/mL
same,MIC Streptococcus agalactiae (GC 4564),[1],16 µg/mL
same,MIC Streptococcus pneumoniae (ATCC 6301),[1],8 µg/mL
same,MIC Streptococcus pneumoniae (GC 1894),[1],8 µg/mL
same,MIC Streptococcus pneumoniae (GC 4565),[1],16 µg/mL
same,MIC Streptococcus pyogenes (GC 4563),[1],4 µg/mL
same,MIC Enterococcus avium (GC 4558),[2]; Enterococcus avium (GC 4558),8 µg/mL
same,MIC Enterococcus faecalis (ATCC 29212),[2]; [10],16 µg/mL
same,MIC Enterococcus faecalis (GC 2242),[2]; [11],16 µg/mL
same,MIC Enterococcus faecalis (GC 2691),[2]; [12],16 µg/mL
same,MIC Enterococcus faecalis (GC 3059),[2]; [13],16 µg/mL
same,MIC Enterococcus faecalis (GC 4552),[2]; [14],16 µg/mL
same,MIC Enterococcus faecalis (GC 4553),[2]; [15],8 µg/mL
same,MIC Enterococcus faecalis (GC 4554),[2]; [16],32 µg/mL
same,MIC Enterococcus faecalis (GC 6189),[2]; [17],16 µg/mL
same,MIC Enterococcus faecium (GC 2243),[2]; Enterococcus faecium (GC 2243),8 µg/mL
same,MIC Enterococcus faecium (GC 4556),[2]; Enterococcus faecium (GC 4556),32 µg/mL
same,MIC Enterococcus faecium (GC 4557),[2]; Enterococcus faecium (GC 4557),8 µg/mL
same,MIC Enterococcus avium (GC 4558),[2],8 µg/mL
same,MIC Enterococcus faecalis (ATCC 29212),[2],16 µg/mL
same,MIC Enterococcus faecalis (GC 2242),[2],16 µg/mL
same,MIC Enterococcus faecalis (GC 2691),[2],16 µg/mL
same,MIC Enterococcus faecalis (GC 3059),[2],16 µg/mL
same,MIC Enterococcus faecalis (GC 4552),[2],16 µg/mL
same,MIC Enterococcus faecalis (GC 4553),[2],8 µg/mL
same,MIC Enterococcus faecalis (GC 4554),[2],32 µg/mL
same,MIC Enterococcus faecalis (GC 6189),[2],16 µg/mL
same,MIC Enterococcus faecium (GC 2243),[2],8 µg/mL
same,MIC Enterococcus faecium (GC 4556),[2],32 µg/mL
same,MIC Enterococcus faecium (GC 4557),[2],8 µg/mL
same,MIC Coagulase Negative Staphylococcus (GC 4547),[3],8 µg/mL
same,MIC Coagulase Negative Staphylococcus (GC 4548),[3],8 µg/mL
same,MIC Coagulase Negative Staphylococcus (GC 4549),[3],4 µg/mL
same,MIC Coagulase Negative Staphylococcus (GC 4551),[3],8 µg/mL
same,MIC Coagulase Negative Staphylococcus (GC 6257),[3],4 µg/mL
same,MIC Staphylococcus aureus SMITH (GC 4543),[3],16 µg/mL
same,MIC Staphylococcus haemolyticus (GC 4546),[3],8 µg/mL
same,MIC Staphylococcus aureus-SMITH (GC 4543),[3],16 µg/mL
same,MIC Escherichia coli (GC 4560),[4],16 µg/mL
